US11596639B2, “Substituted indole Mcl-1 inhibitors” (Vanderbilt University, priority 2016, dated 2023)
pKi: −log10 of the molar value.

Tests used:
[1] = test system: H929 human cancer cell lines; assay: Cellular viability / proliferation (Cell TiterGlo, 72 h); format: cell-based; conditions: Homo sapiens, NCI-H929, 72 h, read-out: GI50 on cellular proliferation of H929 human cancer cell lines, H929 cells, 72 h, Cell TiterGlo, 10% FBS
In short: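 Compounds were added as 2-fold serial dilutions from 50 μM (final DMSO <1%) to H929 cells seeded 1,000 per well in 10% FBS medium one day earlier.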

Mcl-1 = Mcl-1 (Homo sapiens (Human), UniProt Q07820); assay: TR-FRET binding assay, FITC-Bak peptide and MBP-tagged Mcl-1; conditions: read-out: Ki for Inhibition of Mcl-1 by TR-FRET assay
Description: Compounds are diluted in DMSO in a 16-point, semilog serial dilution scheme. […] The plate was mixed and incubated for 3 hours at room temperature. […] TR-FRET signal is plotted and IC50 and Ki values are calculated in the same manner as the fluorescence polarization anisotropy based competition assays.

Sequence of Mcl-1 (Q07820 172-327): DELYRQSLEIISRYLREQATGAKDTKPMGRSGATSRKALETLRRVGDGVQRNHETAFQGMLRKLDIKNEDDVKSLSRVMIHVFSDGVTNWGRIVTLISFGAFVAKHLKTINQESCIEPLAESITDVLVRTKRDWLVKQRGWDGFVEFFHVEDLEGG

Row | SMILES | GI50 [1] | pKi (Mcl-1)
1 | COCCN(C)c1cc(N2C[C@@H](C)n3c(c(CCCOc4cc(C)c(Cl)c(C)c4)c4ccc(Cl)c(-c5c(C)nn(C)c5C)c43)C2=O)c2c(c1)cc(C(=O)O)n2C [Example 682, (R)-7-(7-chloro-10-(3-(4-chloro-3,5-dimethylphenoxy)propyl)-4-methyl-1-oxo-6-(1,3,5-trimethyl-1H-pyrazol-4-yl)-3,4-dihydropyrazino[1,2-a]indol-2(1H)-yl)-5-((2-methoxyethyl)(methyl)amino)-1-methyl-1H-indole-2-carboxylic acid] | 340 nM | > 9.70
2 | COCCOCCn1c(C(=O)O)cc2cc(C)cc(N3C[C@@H](C)n4c(c(CCCOc5cc(C)c(Cl)c(C)c5)c5ccc(Cl)c(-c6c(C)ncnc6C)c54)C3=O)c21 [Example 635, (R)-7-(7-chloro-10-(3-(4-chloro-3,5-dimethylphenoxy)propyl)-6-(4,6-dimethylpyrimidin-5-yl)-4-methyl-1-oxo-3,4-dihydropyrazino[1,2-a]indol-2(1H)-yl)-1-(2-(2-methoxyethoxy)ethyl)-5-methyl-1H-indole-2-carboxylic acid] | < 200 nM | > 9.70
3 | COc1ccc(N2C[C@@H](C)n3c(c(CCCOc4cc(C)c(Cl)c(C)c4)c4ccc(Cl)c(-c5c(C)ncnc5C)c43)C2=O)c2c1cc(C(=O)O)n2Cc1ccc(C)cn1 [Example 478, (R)-7-(7-Chloro-10-(3-(4-chloro-3,5-dimethylphenoxy)propyl)-6-(4,6-dimethylpyrimidin-5-yl)-4-methyl-1-oxo-3,4-dihydropyrazino[1,2-a]indol-2(1H)-yl)-4-methoxy-1-((5-methylpyridin-2-yl)methyl)-1H-indole-2-carboxylic acid] | 560 nM | 9.62
4 | Cc1cc(OCCCc2c3n(c4c(-c5c(C)nn(C)c5C)c(Cl)ccc24)[C@H](C)CN(c2cc(OCCOC(C)C)cc4c(C(=O)O)cn(Cc5ccccn5)c24)C3=O)cc(C)c1Cl [Example 606, (R)-7-(7-chloro-10-(3-(4-chloro-3,5-dimethylphenoxy)propyl)-4-methyl-1-oxo-6-(1,3,5-trimethyl-1H-pyrazol-4-yl)-3,4-dihydropyrazino[1,2-a]indol-2(1H)-yl)-5-(2-isopropoxyethoxy)-1-(pyridin-2-ylmethyl)-1H-indole-3-carboxylic acid] | 600 nM | 9.33
5 | COc1ccc(N2C[C@@H](C)n3c(c(CCCOc4cc(C)c(Cl)c(C)c4)c4ccc(Cl)c(-c5c(C)n[nH]c5C)c43)C2=O)c2c1cc(C(=O)O)n2C [Example 727, (R)-7-(7-chloro-10-(3-(4-chloro-3,5-dimethylphenoxy)propyl)-6-(3,5-dimethyl-1H-pyrazol-4-yl)-4-methyl-1-oxo-3,4-dihydropyrazino[1,2-a]indol-2(1H)-yl)-4-methoxy-1-methyl-1H-indole-2-carboxylic acid] | 500 nM | > 9.70
6 | CC(=O)N1CCN(c2cccc(Cn3c(C(=O)O)cc4cc(C)cc(N5C[C@@H](C)n6c(c(CCCOc7cc(C)c(Cl)c(C)c7)c7ccc(Cl)c(-c8c(C)nn(C)c8C)c76)C5=O)c43)n2)CC1 [Example 528, (R)-1-((6-(4-acetylpiperazin-1-yl)pyridin-2-yl)methyl)-7-(7-chloro-10-(3-(4-chloro-3,5-dimethylphenoxy)propyl)-4-methyl-1-oxo-6-(1,3,5-trimethyl-1H-pyrazol-4-yl)-3,4-dihydropyrazino[1,2-a]indol-2(1H)-yl)-5-methyl-1H-indole-2-carboxylic acid] | 870 nM | > 9.70
7 | COCCOCCn1c(C(=O)O)cc2cccc(N3C[C@@H](C)n4c(c(CCCOc5cc(C)c(Cl)c(C)c5)c5ccc(Cl)c(-c6c(C)nn(C)c6C)c54)C3=O)c21 [Example 634, (R)-7-(7-chloro-10-(3-(4-chloro-3,5-dimethylphenoxy)propyl)-4-methyl-1-oxo-6-(1,3,5-trimethyl-1H-pyrazol-4-yl)-3,4-dihydropyrazino[1,2-a]indol-2(1H)-yl)-1-(2-(2-methoxyethoxy)ethyl)-1H-indole-2-carboxylic acid] | 280 nM | > 9.70
